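Compound exposure: 48 hours, 5 concentrations, 96-well plates. GI50 = concentration required for 50% inhibition of growth. TGI denotes the concentration required for complete inhibition of growth.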
Legend:
Assay in all cases: NCI tumour cell line growth inhibition, 48 h
NCI-H460 lung = tested on: NCI-H460 lung
HS 578T breast = tested on: HS 578T breast
NCI-H23 lung = tested on: NCI-H23 lung
KM12 colon = tested on: KM12 colon
NCI-H522 lung = tested on: NCI-H522 lung
COLO 205 colon = tested on: COLO 205 colon
EKVX NSCLC = tested on: EKVX NSCLC
U251 CNS = tested on: U251 CNS
SNB-75 CNS = tested on: SNB-75 CNS
HCC-2998 colon = tested on: HCC-2998 colon

SMILES: CCCCCCNC(=O)Oc1ccc(/C(=C(/C)Cc2ccc(OC)cc2)c2ccc(OCCCN(C)C)cc2)cc1
- GI50 (NCI-H460 lung): 14.1 µM
- TGI (NCI-H460 lung): 28.2 µM
- GI50 (HS 578T breast): 15.5 µM
- TGI (HS 578T breast): 35.7 µM
- GI50 (NCI-H23 lung): 15.1 µM
- TGI (NCI-H23 lung): 29.9 µM
- GI50 (KM12 colon): 13.9 µM
- TGI (KM12 colon): 27.7 µM
- GI50 (NCI-H522 lung): 16.2 µM
- TGI (NCI-H522 lung): 31.3 µM
- GI50 (COLO 205 colon): 14.6 µM
- TGI (COLO 205 colon): 29.7 µM
- GI50 (EKVX NSCLC): 13.2 µM
- TGI (EKVX NSCLC): 27.5 µM
- GI50 (U251 CNS): 13 µM
- TGI (U251 CNS): 26.5 µM
- GI50 (SNB-75 CNS): 12.6 µM
- TGI (SNB-75 CNS): 25.6 µM
- GI50 (HCC-2998 colon): 14.6 µM
- TGI (HCC-2998 colon): 29.2 µM

SMILES: Cc1ccc(C(NC(=O)c2ccccc2)c2ccc3cccnc3c2O)cc1 (stereo not given)
- GI50 (NCI-H460 lung): 0.26 µM
- TGI (NCI-H460 lung): 3.08 µM
- GI50 (HS 578T breast): 1.25 µM
- TGI (HS 578T breast): > 74.7 µM
- GI50 (NCI-H23 lung): 0.417 µM
- TGI (NCI-H23 lung): > 32.5 µM
- GI50 (KM12 colon): 0.38 µM
- TGI (KM12 colon): > 43.7 µM
- GI50 (NCI-H522 lung): 0.31 µM
- TGI (NCI-H522 lung): 2.74 µM
- GI50 (COLO 205 colon): 0.44 µM
- TGI (COLO 205 colon): 18.5 µM
- GI50 (EKVX NSCLC): 0.357 µM
- TGI (EKVX NSCLC): 53.5 µM
- GI50 (U251 CNS): 0.249 µM
- TGI (U251 CNS): 18.4 µM
- GI50 (SNB-75 CNS): 0.927 µM
- TGI (SNB-75 CNS): 60 µM
- GI50 (HCC-2998 colon): 0.331 µM
- TGI (HCC-2998 colon): 18.5 µM

SMILES: COC(=O)C1OC2(CCCC3CC32)O[C@H]1C(=O)OC (stereo not given in full)
- TGI (NCI-H460 lung): > 100 µM
- TGI (HS 578T breast): > 100 µM
- TGI (NCI-H23 lung): > 100 µM
- TGI (KM12 colon): > 100 µM
- TGI (NCI-H522 lung): > 100 µM
- TGI (COLO 205 colon): > 100 µM
- TGI (EKVX NSCLC): > 100 µM
- TGI (U251 CNS): > 100 µM
- TGI (SNB-75 CNS): > 100 µM
- TGI (HCC-2998 colon): > 100 µM

SMILES: N#Cc1c(Br)n(C2OC(CO)C(O)C2O)c2ncnc(N)c12 (stereo not given)
- GI50 (NCI-H460 lung): 0.574 µM
- TGI (NCI-H460 lung): 4.56 µM
- GI50 (HS 578T breast): 0.696 µM
- TGI (HS 578T breast): 8.54 µM
- GI50 (NCI-H23 lung): 3.63 µM
- TGI (NCI-H23 lung): 41.1 µM
- GI50 (KM12 colon): 1.71 µM
- TGI (KM12 colon): > 40.1 µM
- GI50 (NCI-H522 lung): 4.62 µM
- TGI (NCI-H522 lung): 14.8 µM
- GI50 (COLO 205 colon): 0.675 µM
- TGI (COLO 205 colon): 3.07 µM
- GI50 (EKVX NSCLC): 4.62 µM
- TGI (EKVX NSCLC): 74.7 µM
- GI50 (U251 CNS): 1.85 µM
- TGI (U251 CNS): > 100 µM
- GI50 (SNB-75 CNS): 3.98 µM
- TGI (SNB-75 CNS): 30.7 µM
- GI50 (HCC-2998 colon): 2.15 µM
- TGI (HCC-2998 colon): 26.3 µM

SMILES: CC1=CC(=O)C(C(C)C)=CC1=Nc1cc(Br)c(O)c(Br)c1
- GI50 (NCI-H460 lung): 3.53 µM
- TGI (NCI-H460 lung): 14.4 µM
- GI50 (HS 578T breast): 2.76 µM
- TGI (HS 578T breast): 21.1 µM
- GI50 (NCI-H23 lung): 4.26 µM
- TGI (NCI-H23 lung): 26.1 µM
- GI50 (KM12 colon): 2.33 µM
- TGI (KM12 colon): 7.01 µM
- GI50 (NCI-H522 lung): 4.42 µM
- TGI (NCI-H522 lung): 18 µM
- GI50 (COLO 205 colon): 19.2 µM
- TGI (COLO 205 colon): 35.1 µM
- GI50 (EKVX NSCLC): 4.51 µM
- TGI (EKVX NSCLC): 36 µM
- GI50 (U251 CNS): 4.72 µM
- TGI (U251 CNS): 19.1 µM
- GI50 (SNB-75 CNS): 4.22 µM
- TGI (SNB-75 CNS): 21.6 µM
- GI50 (HCC-2998 colon): 3.56 µM
- TGI (HCC-2998 colon): 13 µM

SMILES: Cn1nc(-c2ccc(Cl)cc2)nc2c(=O)n(C)c(=O)nc1-2
- GI50 (NCI-H460 lung): 1.21 µM
- TGI (NCI-H460 lung): 4.94 µM
- GI50 (HS 578T breast): 1.35 µM
- TGI (HS 578T breast): 3.51 µM
- GI50 (NCI-H23 lung): 1.18 µM
- TGI (NCI-H23 lung): 3.16 µM
- GI50 (KM12 colon): 1.35 µM
- TGI (KM12 colon): 5.5 µM
- GI50 (NCI-H522 lung): 0.864 µM
- TGI (NCI-H522 lung): 1.67 µM
- GI50 (COLO 205 colon): 0.491 µM
- TGI (COLO 205 colon): 1.93 µM
- GI50 (EKVX NSCLC): 1.11 µM
- TGI (EKVX NSCLC): 4.21 µM
- GI50 (U251 CNS): 0.789 µM
- TGI (U251 CNS): 2.62 µM
- GI50 (SNB-75 CNS): 2.38 µM
- TGI (SNB-75 CNS): 4.68 µM
- GI50 (HCC-2998 colon): 1.18 µM
- TGI (HCC-2998 colon): 3.83 µM

SMILES: O=[N+]([O-])c1ccc(Oc2nc(Nc3ccc(O[C@H]4CO[C@H]5[C@@H]4OC[C@@H]5O)c(Cl)c3)ncc2F)c(Cl)c1
- GI50 (NCI-H460 lung): 0.853 µM
- TGI (NCI-H460 lung): 2.98 µM
- GI50 (HS 578T breast): 0.516 µM
- TGI (HS 578T breast): 3.43 µM
- GI50 (NCI-H23 lung): 1.3 µM
- TGI (NCI-H23 lung): 3.22 µM
- GI50 (KM12 colon): 0.41 µM
- TGI (KM12 colon): 2.22 µM
- GI50 (NCI-H522 lung): 1.17 µM
- TGI (NCI-H522 lung): 5.6 µM
- GI50 (COLO 205 colon): 1.42 µM
- TGI (COLO 205 colon): 3.78 µM
- GI50 (EKVX NSCLC): 2.22 µM
- TGI (EKVX NSCLC): 9.43 µM
- GI50 (U251 CNS): 1.66 µM
- TGI (U251 CNS): 6.51 µM
- GI50 (SNB-75 CNS): 0.443 µM
- TGI (SNB-75 CNS): 3.28 µM
- GI50 (HCC-2998 colon): 2.12 µM
- TGI (HCC-2998 colon): 7.07 µM

SMILES: COc1ccc(S(=O)(=O)NC2=NCCN2C(=S)SN2CCn3c2nsc3=S)cc1
- GI50 (NCI-H460 lung): 17.1 µM
- TGI (NCI-H460 lung): 44.2 µM
- GI50 (HS 578T breast): 20.8 µM
- TGI (HS 578T breast): 54.2 µM
- GI50 (NCI-H23 lung): 22.9 µM
- TGI (NCI-H23 lung): 55.7 µM
- GI50 (KM12 colon): 18.7 µM
- TGI (KM12 colon): 37.7 µM
- GI50 (NCI-H522 lung): 9.62 µM
- TGI (NCI-H522 lung): 35 µM
- GI50 (COLO 205 colon): 11 µM
- TGI (COLO 205 colon): 27.4 µM
- GI50 (EKVX NSCLC): 15.8 µM
- TGI (EKVX NSCLC): 30.6 µM
- GI50 (U251 CNS): 18.8 µM
- TGI (U251 CNS): 40.5 µM
- GI50 (SNB-75 CNS): 19.5 µM
- TGI (SNB-75 CNS): 42.5 µM
- GI50 (HCC-2998 colon): 21.4 µM
- TGI (HCC-2998 colon): 37.9 µM

SMILES: O=C(O)c1cn(C2CC2)c2cc(N3CCN(C(=O)Nc4nc(-c5ccccc5)cs4)CC3)c(F)cc2c1=O
- GI50 (NCI-H460 lung): 0.445 µM
- TGI (NCI-H460 lung): > 100 µM
- GI50 (HS 578T breast): 0.861 µM
- TGI (HS 578T breast): 72.1 µM
- GI50 (NCI-H23 lung): 0.654 µM
- TGI (NCI-H23 lung): 14 µM
- GI50 (KM12 colon): 0.485 µM
- TGI (KM12 colon): 23.7 µM
- GI50 (NCI-H522 lung): 1.39 µM
- TGI (NCI-H522 lung): 6.26 µM
- GI50 (COLO 205 colon): 2.84 µM
- TGI (COLO 205 colon): 9.63 µM
- GI50 (EKVX NSCLC): 3.17 µM
- TGI (EKVX NSCLC): 85.2 µM
- GI50 (U251 CNS): 0.474 µM
- TGI (U251 CNS): 14.1 µM
- GI50 (SNB-75 CNS): 1.22 µM
- TGI (SNB-75 CNS): 19.4 µM
- GI50 (HCC-2998 colon): 2.24 µM
- TGI (HCC-2998 colon): > 100 µM

SMILES: Oc1ccc(-c2nc3ccc4[nH]ncc4c3c3c2CCCC3)c(F)c1
- GI50 (NCI-H460 lung): 2.18 µM
- TGI (NCI-H460 lung): 11.1 µM
- GI50 (HS 578T breast): 2.35 µM
- TGI (HS 578T breast): 8.98 µM
- GI50 (NCI-H23 lung): 3.15 µM
- TGI (NCI-H23 lung): 14 µM
- GI50 (KM12 colon): 0.362 µM
- TGI (KM12 colon): 13.2 µM
- GI50 (NCI-H522 lung): 1.25 µM
- TGI (NCI-H522 lung): 4.72 µM
- GI50 (COLO 205 colon): 2.25 µM
- TGI (COLO 205 colon): 5.56 µM
- GI50 (EKVX NSCLC): 3.16 µM
- TGI (EKVX NSCLC): 13.5 µM
- GI50 (U251 CNS): 1.45 µM
- TGI (U251 CNS): 6.36 µM
- GI50 (SNB-75 CNS): 2.02 µM
- TGI (SNB-75 CNS): 7.05 µM
- GI50 (HCC-2998 colon): 4.25 µM
- TGI (HCC-2998 colon): 14.5 µM

SMILES: COc1cccc2c1-c1c(c3ccc([N+](=O)[O-])cc3c(=O)n1CCCN)C2=O
- GI50 (NCI-H460 lung): 0.239 µM
- TGI (NCI-H460 lung): 1.94 µM
- GI50 (HS 578T breast): 7.62 µM
- TGI (HS 578T breast): 18.7 µM
- GI50 (NCI-H23 lung): 1.39 µM
- TGI (NCI-H23 lung): 3.01 µM
- GI50 (KM12 colon): 2.02 µM
- TGI (KM12 colon): > 24.1 µM
- GI50 (NCI-H522 lung): 0.043 µM
- TGI (NCI-H522 lung): 1.89 µM
- GI50 (COLO 205 colon): 1.34 µM
- TGI (COLO 205 colon): 3.07 µM
- GI50 (EKVX NSCLC): 2.17 µM
- TGI (EKVX NSCLC): 5.08 µM
- GI50 (U251 CNS): 1.02 µM
- TGI (U251 CNS): 2.23 µM
- GI50 (SNB-75 CNS): 5.76 µM
- TGI (SNB-75 CNS): 25.1 µM
- GI50 (HCC-2998 colon): 3.02 µM
- TGI (HCC-2998 colon): 7 µM
